Like-named read-outs stand apart in the source and are kept apart here.
Columns and labels:
[1] = Blood exposure of compound (I) after oral dose in rats; assay type: in vivo; conditions: female, rat, 1 mg/kg dose
Protocol: From the experimental data it was apparent that a short transient systemic exposure of compound (I) is sufficient to achieve full BTK occupancy in several tissues at low oral doses of 1-3 mg/kg. […] This very low and transient systemic exposure is consistent with the PK/PD model typical of irreversible inhibitors.

[2] = system: FcεR1-mediated basophil activation; test: Ex vivo basophil activation (CD63, CD203c), whole blood stimulated with anti-IgE, flow cytometry; assay type: in vivo, human
Protocol: In addition, ex vivo inhibition of basophil activation (monitored by surface expression of CD63 and CD203c) was used as distal mechanistic biomarker to test downstream PD effects of compound (I). To determine the PD effect of compound (I) on basophil activation, whole blood was stimulated ex vivo with anti-IgE. Degranulation was evaluated by percentage of CD63+ and CD203+ basophils by flow cytometry.

[3] = First-in-human Part 3 food effect PK, single 60 mg dose; assay type: in vivo; conditions: for Tmax / AUC(0-t): human, oral, 60 mg
From the text: First-in-human study in up to approximately 168 healthy volunteers (HVs), of which 64 (in Parts 2 & 4) had asymptomatic atopic diathesis. • Part 1 was a double-blind (subject and investigator blind, sponsor unblinded), placebo-controlled single ascending dose (SAD) escalation study of 10 cohorts (N=80) • Part 2 was a double-blind (subject and investigator blind, sponsor unblinded), placebo-controlled multiple ascending dose (MAD) (13 doses over 12 days) escalation study employing once daily dosing in 6 cohorts in healthy volunteers with asymptomatic atopic diathesis (N=48) • Part 3 was a single dose open-label crossover food effect study in 12 HVs • Part 4 was a double-blind (subject and investigator blind, sponsor unblinded), placebo-controlled multiple dose (25 doses over 12 days) study employing twice daily dosing in 2 cohorts of healthy volunteers with asymptomatic atopic diathesis (N=16)
Part 3 was an open-label, randomized, two-way cross-over, single dose study to assess food effects. In Part 3, each subject participated in a 28 day screening period (Day −29 to −2), 2 baseline (Day −1) and 2 treatment periods, each consisting of a single dose administration on Day 1 followed by safety and PK assessment up to Day 5. Treatment period 2 consisted of a follow-up visit and an end of study evaluation on Day 22 and 40, respectively. The two treatment periods were separated by a wash-out period of at least 18 days (+/−1 day).
Subjects were randomized to one of the 2 treatment sequences in the ratio of 1:1:
Pharmacokinetic samples were obtained in blood and evaluated in all subjects at all dose levels. The samples from placebo subjects were not analyzed. The samples for PK assessments from subjects were collected at time points defined in the study. Compound (I) concentrations were determined in blood by a validated LC-MS/MS method.

[4] = system: mast cell FcγRIII-mediated inflammation; test: Reverse passive Arthus (RPA) model, skin swelling; assay type: in vivo
Protocol: As the levels of BTK-expressing cells in skin were too low to allow occupancy measurement, the duration of the PD effect in skin after single dose was assessed in the reverse passive Arthus (RPA) model of mast cell FcγRIII-mediated inflammation. In this model, the inhibition of skin swelling was maximal when compound (I) was dosed 2 hours prior to eliciting the Arthus reaction. The effect diminished gradually and reached baseline when the Arthus reaction was triggered 45 hours or later after compound (I) dosing.

[5] = single dose 60 mg, FAST, Geomean
[6] = single dose 60 mg, FED, Geomean

With `C=CC(=O)N(C)CCOc1c(N)ncnc1-c1cc(F)cc(NC(=O)c2ccc(C3CC3)cc2F)c1C` [Compound of Formula (I), N-(3-(6-Amino-5-(2-(N-methylacrylamido)ethoxy)pyrimidin-4-yl)-5-fluoro-2-methylphenyl)-4-cyclopropyl-2-fluorobenzamide] the concentration at 0.5 h ([1]; 0.5 hours post dose) was 49.1 nM, the concentration at 5 h ([1]; 5 hours post dose) was 5.6 nM and the “reduction of CD63 up-regulation” value ([2]; 10 mg q.d., as restated) was greater than 80%. The “inhibition of CD63 upregulation” value ([2]; 10 mg q.d., day 12 (steady state), 8 h after administration) was greater than 90%, the “maximum trough inhibition of CD203c activation” value ([2]; Day 12, multiple doses) was “only achieved with b.i.d. administration of 100 mg and 200 mg” and the “trough level inhibition of CD63” value ([2]; doses ≥50 mg q.d., day 12) was greater than 90%. The “inhibition of ex vivo basophil activation measured by CD63” value ([2]; single dose 60 mg, 24 h post dose) was greater than 89%, the “maximum inhibition of CD203c” value ([2]; single dose 200 mg, 24 h post dose) was roughly 50% and the “inhibition of ex vivo basophil activation measured by CD63” value ([2]; single doses higher than 60 mg, 24 h post dose) was roughly 100%. It also gave a Tmax ([3]; blood, fasted, read-out: mean Tmax) of 1 h, a Tmax ([3]; blood, fed, read-out: mean Tmax) greater than 3 h and an AUC(0-t) ([3]; blood, single dose 60 mg, FAST, Geomean, read-out: AUC0-24) of 182 ng·h/mL. It also gave an AUC(0-t) ([3]; blood, single dose 60 mg, FAST, Geomean, read-out: AUClast) of 177 ng·h/mL, an AUC(0-t) ([3]; blood, single dose 60 mg, FAST, Mean, read-out: AUC0-24) of 202 ng·h/mL and an AUC(0-t) ([3]; blood, single dose 60 mg, FAST, Mean, read-out: AUClast) of 196 ng·h/mL. It also gave a Tmax ([3]; blood, single dose 60 mg, FED, Geomean, read-out: Tmax) of 3.18 h, a Tmax ([3]; whole blood, single dose 60 mg, FAST, Geomean, read-out: Tmax) of 0.95 h and a Tmax ([3]; whole blood, single dose 60 mg, FAST, Mean, read-out: Tmax) of 1.02 h. The AUC(0-t) ([3]; whole blood, single dose 60 mg, FED, Geomean, read-out: AUC0-24) was 249 ng·h/mL, the AUC(0-t) ([3]; whole blood, single dose 60 mg, FED, Mean, read-out: AUC0-24) was 264 ng·h/mL and the AUC(0-t) ([3]; whole blood, single dose 60 mg, FED, Mean, read-out: AUClast) was 252 ng·h/mL. The Tmax ([3]; whole blood, single dose 60 mg, FED, Mean, read-out: Tmax) was 3.42 h, the Cmax [3, 5] was 100.95 ng/mL and the Tlast [3, 5] was 9.66 h. For the same compound, the Cmax ([3]; single dose 60 mg, FAST, Mean) was 114.81 ng/mL, the Tlast ([3]; single dose 60 mg, FAST, Mean) was 10.50 h and the AUClast [3, 6] was 237.84 ng·h/mL. For the same compound, the Cmax [3, 6] was 80.86 ng/mL, the Tlast [3, 6] was 9.25 h and the Cmax ([3]; single dose 60 mg, FED, Mean) was 83.39 ng/mL. The Tlast ([3]; single dose 60 mg, FED, Mean) was 9.50 h, the “higher AUC0-24 fed vs fasted” value ([3]; single oral dose 60 mg) was 1.4 fold and the “lower Cmax fed vs fasted” value ([3]; single oral dose 60 mg) was 1.25 fold. The “time after dosing of Arthus trigger at which effect reached baseline” value ([4]; single dose) was no less than 45 h and the “inhibition of skin swelling” value ([4]; single dose 2 hours prior to eliciting the Arthus reaction) was “maximal”.

Reference: patent publication US12383556B2, “Methods of treating Sjögren's syndrome using a Bruton's tyrosine kinase inhibitor” (NOVARTIS AG, priority 2019, dated 2025)
